Experimental data: ChEMBL document CHEMBL3044674, “Design and synthesis of positional isomers of 1-alkyl-2-trifluoromethyl-5 or 6-substituted benzimidazoles and their antimicrobial activity” (2013)
Values after ≈ are worked out from the molar mass of the structure shown.

Experiments:
Type in all cases: functional
Aspergillus niger = test: Antifungal activity against Aspergillus niger MTCC 1344 after 24 hr by paper disk method; conditions: MTCC 1344, 24 h
Rhizopus arrhizus = test: Antifungal activity against Rhizopus oryzae MTCC 262 after 24 hr by paper disk method; conditions: MTCC 262, 24 h
Candida albicans = test: Antifungal activity against Candida albicans MTCC 227 after 24 hr by paper disk method; conditions: MTCC 227, 24 h
Saccharomyces cerevisiae = test: Antifungal activity against Saccharomyces cerevisiae MTCC 36 after 24 hr by paper disk method; conditions: MTCC 36, 24 h
Pseudomonas aeruginosa = test: Antibacterial activity against Pseudomonas aeruginosa NCIM 2957 after 18 to 20 hr by plate method
Escherichia coli = test: Antibacterial activity against Escherichia coli NCIM 2068 after 18 to 20 hr by plate method
Staphylococcus aureus = test: Antibacterial activity against Staphylococcus aureus NCIM 2079 after 18 to 20 hr by plate method
Bacillus subtilis = test: Antibacterial activity against Bacillus subtilis NCIM 2921 after 18 to 20 hr by plate method

SMILES	MIC (Aspergillus niger) [µg/mL]	MIC (Rhizopus arrhizus) [µg/mL]	MIC (Candida albicans) [µg/mL]	MIC (Saccharomyces cerevisiae) [µg/mL]	Activity (Pseudomonas aeruginosa)	MIC (Pseudomonas aeruginosa) [µg/mL]	Activity (Escherichia coli)	MIC (Escherichia coli) [µg/mL]	Activity (Staphylococcus aureus)	MIC (Staphylococcus aureus) [µg/mL]	Activity (Bacillus subtilis)	MIC (Bacillus subtilis) [µg/mL]
O=[N+]([O-])c1ccc2c(c1)nc(C(F)(F)C(F)(F)F)n2CCCCCl	650 (≈ 1750 µM)	700 (≈ 1880 µM)	700 (≈ 1880 µM)	750 (≈ 2020 µM)	–	–	–	–	–	–	–	–
CCOC(=O)Cn1c(C(F)(F)F)nc2cc([N+](=O)[O-])ccc21	550 (≈ 1730 µM)	600 (≈ 1890 µM)	400 (≈ 1260 µM)	600 (≈ 1890 µM)	Dose-dependent effect	900 (≈ 2840 µM)	Dose-dependent effect	700 (≈ 2210 µM)	Dose-dependent effect	800 (≈ 2520 µM)	Dose-dependent effect	800 (≈ 2520 µM)
CCn1c(C(F)(F)F)nc2ccc([N+](=O)[O-])cc21	800 (≈ 3090 µM)	850 (≈ 3280 µM)	900 (≈ 3470 µM)	800 (≈ 3090 µM)	–	–	–	–	–	–	–	–
CCOC(=O)Cn1c(C(F)(F)C(F)(F)F)nc2ccc(C(=O)c3ccccc3)cc21	900 (≈ 2110 µM)	850 (≈ 1990 µM)	700 (≈ 1640 µM)	700 (≈ 1640 µM)	Dose-dependent effect	900 (≈ 2110 µM)	Dose-dependent effect	600 (≈ 1410 µM)	Dose-dependent effect	900 (≈ 2110 µM)	Dose-dependent effect	850 (≈ 1990 µM)
CCOC(=O)Cn1c(C(F)(F)F)nc2ccc(C(=O)c3ccccc3)cc21	700 (≈ 1860 µM)	400 (≈ 1060 µM)	400 (≈ 1060 µM)	500 (≈ 1330 µM)	–	–	–	–	–	–	–	–
O=[N+]([O-])c1ccc2nc(C(F)(F)F)n(CCCCl)c2c1	350 (≈ 1140 µM)	300 (≈ 975 µM)	400 (≈ 1300 µM)	500 (≈ 1630 µM)	Dose-dependent effect	450 (≈ 1460 µM)	Dose-dependent effect	400 (≈ 1300 µM)	Dose-dependent effect	350 (≈ 1140 µM)	Dose-dependent effect	300 (≈ 975 µM)
CCOC(=O)Cn1c(C(F)(F)C(F)(F)F)nc2cc(C(=O)c3ccccc3)ccc21	1000 (≈ 2350 µM)	800 (≈ 1880 µM)	700 (≈ 1640 µM)	800 (≈ 1880 µM)	Dose-dependent effect	700 (≈ 1640 µM)	Dose-dependent effect	650 (≈ 1520 µM)	Dose-dependent effect	700 (≈ 1640 µM)	Dose-dependent effect	900 (≈ 2110 µM)
C#CCn1c(C(F)(F)F)nc2ccc([N+](=O)[O-])cc21	650 (≈ 2410 µM)	700 (≈ 2600 µM)	600 (≈ 2230 µM)	700 (≈ 2600 µM)	–	–	–	–	–	–	–	–
O=[N+]([O-])c1ccc2nc(C(F)(F)F)n(CCCCCl)c2c1	650 (≈ 2020 µM)	400 (≈ 1240 µM)	600 (≈ 1870 µM)	700 (≈ 2180 µM)	Dose-dependent effect	–	Dose-dependent effect	–	Dose-dependent effect	800 (≈ 2490 µM)	Dose-dependent effect	700 (≈ 2180 µM)
O=[N+]([O-])c1ccc2c(c1)nc(C(F)(F)F)n2CCCCl	300 (≈ 975 µM)	200 (≈ 650 µM)	300 (≈ 975 µM)	400 (≈ 1300 µM)	Dose-dependent effect	400 (≈ 1300 µM)	Dose-dependent effect	200 (≈ 650 µM)	Dose-dependent effect	300 (≈ 975 µM)	Dose-dependent effect	350 (≈ 1140 µM)
CCn1c(C(F)(F)F)nc2cc([N+](=O)[O-])ccc21	750 (≈ 2890 µM)	700 (≈ 2700 µM)	700 (≈ 2700 µM)	850 (≈ 3280 µM)	–	–	–	–	–	–	–	–
O=[N+]([O-])c1ccc2c(c1)nc(C(F)(F)F)n2CCCCCl	450 (≈ 1400 µM)	500 (≈ 1550 µM)	500 (≈ 1550 µM)	800 (≈ 2490 µM)	Dose-dependent effect	800 (≈ 2490 µM)	Dose-dependent effect	600 (≈ 1870 µM)	Dose-dependent effect	800 (≈ 2490 µM)	Dose-dependent effect	750 (≈ 2330 µM)
CCOC(=O)Cn1c(C(F)(F)F)nc2ccc([N+](=O)[O-])cc21	500 (≈ 1580 µM)	700 (≈ 2210 µM)	450 (≈ 1420 µM)	600 (≈ 1890 µM)	Dose-dependent effect	850 (≈ 2680 µM)	Dose-dependent effect	800 (≈ 2520 µM)	Dose-dependent effect	900 (≈ 2840 µM)	Dose-dependent effect	950 (≈ 2990 µM)
CCOC(=O)Cn1c(C(F)(F)C(F)(F)F)nc2cc([N+](=O)[O-])ccc21	850 (≈ 2310 µM)	950 (≈ 2590 µM)	800 (≈ 2180 µM)	900 (≈ 2450 µM)	Dose-dependent effect	800 (≈ 2180 µM)	Dose-dependent effect	900 (≈ 2450 µM)	Dose-dependent effect	–	Dose-dependent effect	–
C#CCn1c(C(F)(F)F)nc2cc([N+](=O)[O-])ccc21	600 (≈ 2230 µM)	700 (≈ 2600 µM)	700 (≈ 2600 µM)	750 (≈ 2790 µM)	–	–	–	–	–	–	–	–
N#CCn1c(C(F)(F)F)nc2ccc([N+](=O)[O-])cc21	–	800 (≈ 2960 µM)	–	900 (≈ 3330 µM)	–	–	–	–	–	–	–	–
CCOC(=O)Cn1c(C(F)(F)C(F)(F)F)nc2ccc([N+](=O)[O-])cc21	800 (≈ 2180 µM)	–	900 (≈ 2450 µM)	900 (≈ 2450 µM)	Dose-dependent effect	–	Dose-dependent effect	–	Dose-dependent effect	800 (≈ 2180 µM)	Dose-dependent effect	–
O=[N+]([O-])c1ccc2nc(C(F)(F)C(F)(F)F)n(CCCCCl)c2c1	700 (≈ 1880 µM)	800 (≈ 2150 µM)	800 (≈ 2150 µM)	750 (≈ 2020 µM)	–	–	–	–	–	–	–	–
CCOC(=O)Cn1c(C(F)(F)F)nc2cc(C(=O)c3ccccc3)ccc21	800 (≈ 2130 µM)	450 (≈ 1200 µM)	500 (≈ 1330 µM)	600 (≈ 1590 µM)	–	–	–	–	–	–	–	–
